Results published in paper PMC4583543, “Development and Validation of a Novel Leishmania donovani Screening Cascade for High-Throughput Screening Using a Novel Axenic Assay with High Predictivity of Leishmanicidal Intracellular Activity” (PLoS Neglected Tropical Diseases, 2015).
Where two headings read alike, the source gives them in different places.

Legend:
HepG2 cells = assay: HepG2 assay (mammalian counterscreen, resazurin); assay type: cell-based, human; conditions: Homo sapiens, HepG2; reference compound panel; mean (standard deviation); 72 h; read-out: HepG2 (potency, pEC50) (converted)
Procedure: Compounds were dispensed into 384-well assay plates by acoustic dispensing (LabCyte ECHO). […] Potencies are reported as pEC50 (-LOG(EC50[M])). All data was processed using IDBS ActivityBase. […] For compounds with low activity and poor definition of the curve top, B was fixed to 100. For the determination of the reference compound panel potency, all experiments were carried out with a minimum of three independent repeats. The assay conditions are described previously.

[1] = set-up: method as in PMID 197231; conditions: cited from earlier work
[2] = tested on: LdBOB axenic amastigote-like cells; assay: Novel (cidal) axenic amastigote assay, BacTiter-Glo read-out; assay type: cell-based, Leishmania donovani; conditions: for EC50: Leishmania donovani
Source text: Leishmania donovani BOB cells (LdBOB) used in this study are a cloned line from strain MHOM/SD/62/1S-CL2 [13]. Cultures were maintained as described previously. Compounds were dispensed into 384-well assay plates by acoustic dispensing (LabCyte ECHO). […] Potencies are reported as pEC50 (-LOG(EC50[M])). All data was processed using IDBS ActivityBase. […] For compounds with low activity and poor definition of the curve top, B was fixed to 100. For the determination of the reference compound panel potency, all experiments were carried out with a minimum of three independent repeats. Test compounds were pre-dispensed into white 384 well plates (Corning). For library screens one compound per well was tested at the indicated final concentration. […] DMSO, zero percent effect control: cells at starting concentration. The zero percent effect control wells are left empty during the course of the assay. […] The assay volume is 25 μl / well. […] Plates were then sealed with clear film and relative luminescence was detected using a plate reader (Victor 3) from Perkin Elmer or PHERAstar FS from BMG LABTECH, with 0.5 s detection time per well).

[3] = tested on: eGFP expressing LdBOB amastigote-like cells in PMA differentiated THP-1 cells; assay: Intramacrophage (intracellular, INMAC) assay; assay type: cell-based, Leishmania donovani; conditions: for EC50: Leishmania donovani, THP-1, 96 h, mean (standard deviation), minimum three independent repeats, four day incubation, read-out: Intramacrophage (potency, pEC50) (converted)
Procedure: (§1) Compounds were dispensed into 384-well assay plates by acoustic dispensing (LabCyte ECHO). […] Potencies are reported as pEC50 (-LOG(EC50[M])).
(§2) All data was processed using IDBS ActivityBase. […] Potency plates were normalised to DMSO control (0% effect) and 2μM amphotericin B control (100% effect). […] For compounds with low activity and poor definition of the curve top, B was fixed to 100. For the determination of the reference compound panel potency, all experiments were carried out with a minimum of three independent repeats.
(§3) The assay conditions are described previously. Briefly PMA differentiated THP-1 cells were infected overnight with eGFP expressing LdBOB amastigote-like cells at a multiplicity of infection of 5. Next, any remaining free amastigote-like cells are removed and compounds are added. The microscopy-based read-out is done after a four day compound incubation.

[4] = cited from earlier work
THP-1 cells = assay: THP-1 host cell toxicity in the intramacrophage assay; assay type: cell-based, human; conditions: Homo sapiens, THP-1; reference compound panel; mean (standard deviation); host cell toxicity; read-out: THP-1 (potency, pEC50) (converted)
Procedure: as §1, §2, §3

[5] = read-out: Novel (axenic assay potency, pEC50) (converted)

SMILES	EC50 (HepG2 cells) [µM]	stability in serum [1]	EC50 [2, 5] [µM]	activity in words (novel axenic versus intracellular) ([2]; reference compound panel)	EC50 ([3]; reference compound panel) [µM]	aqueous solubility [4]	EC50 (THP-1 cells) [µM]	EC50 ([2]; control on each plate, run to run over extended time period, ± StDev, read-out: average pEC50 of plate control (converted)) [µM]	potency difference, intracellular assay relative to novel axenic assay ([3]; more active in the intracellular assay)	activity in words (intracellular versus novel axenic) ([3]; reference compound panel)
CCN(CC)C(=S)SSC(=S)N(CC)CC [Disulfiram]	45.7	unstable in serum	0.363	only active in the novel axenic assay	> 34.7	poor	> 34.7			
C[C@@H]1[C@H](O)[C@@H](C)/C=C/C=C/C=C/C=C/C=C/C=C/C=C/[C@H](O[C@@H]2O[C@H](C)[C@@H](O)[C@H](N)[C@@H]2O)C[C@@H]2O[C@](O)(C[C@@H](O)C[C@@H](O)[C@H](O)CC[C@@H](O)C[C@@H](O)CC(=O)O[C@H]1C)C[C@H](O)[C@H]2C(=O)O [Amphotericin B]	> 50.1		0.302		0.24		26.9	0.126		
CC[C@@H]([C@H](C)O)n1ncn(-c2ccc(N3CCN(c4ccc(OC[C@@H]5CO[C@@](Cn6cncn6)(c6ccc(F)cc6F)C5)cc4)CC3)cc2)c1=O [Posaconazole]	8.51		36.3		18.6		17.8			
N=C(N)c1ccc(/N=N/Nc2ccc(C(=N)N)cc2)cc1 [Diminazene]	> 50.1		11.7		> 34.7		> 34.7			
CCCCCCCCCCCCCCCCOP(=O)([O-])OCC[N+](C)(C)C [Miltefosine]	> 50.1		31.6		0.794		> 34.7		around ten-fold	
CCN(CC)Cc1cc(Nc2ccnc3cc(Cl)ccc23)ccc1O [Amodiaquine]	25.7		> 50.1		4.07		29.5			only active in the intracellular assay
CSc1ccc(OCc2ncc([N+](=O)[O-])n2C)cc1 [Fexinidazole]	> 50.1		11.5		> 34.7		> 34.7			
CC1=CC(=O)c2ccccc2C1=O [Menadione]	3.47		10.2		> 34.7		33.1			
CC(C)(C)NC(=O)[C@@H]1CN(Cc2cccnc2)CCN1C[C@@H](O)C[C@@H](Cc1ccccc1)C(=O)N[C@H]1c2ccccc2C[C@H]1O [Indinavir]	> 50.1		> 50.1		> 34.7		> 34.7			
